One experiment deals with T1, Delta Opioid Receptor (Rattus norvegicus, UniProt P33533).
T1 construct: the forebrains were homogenized in Tris buffer in a Teflon®-glass homogenizer; from tissue; host or cells: forebrain of male Wistar rats, particulate membrane preparation
Nature of the experiment: Rat brain delta opioid receptor binding assay ([3H]DPDPE or [3H]naltrindole).

For a further experiment, the target named is T2, Mu Opioid Receptor (Rattus norvegicus, UniProt P33535).
T2 construct: the forebrains were homogenized in Tris buffer in a Teflon®-glass homogenizer; from tissue; host or cells: forebrain of male Wistar rats, particulate membrane preparation
T2 sequence (P33535 whole entry): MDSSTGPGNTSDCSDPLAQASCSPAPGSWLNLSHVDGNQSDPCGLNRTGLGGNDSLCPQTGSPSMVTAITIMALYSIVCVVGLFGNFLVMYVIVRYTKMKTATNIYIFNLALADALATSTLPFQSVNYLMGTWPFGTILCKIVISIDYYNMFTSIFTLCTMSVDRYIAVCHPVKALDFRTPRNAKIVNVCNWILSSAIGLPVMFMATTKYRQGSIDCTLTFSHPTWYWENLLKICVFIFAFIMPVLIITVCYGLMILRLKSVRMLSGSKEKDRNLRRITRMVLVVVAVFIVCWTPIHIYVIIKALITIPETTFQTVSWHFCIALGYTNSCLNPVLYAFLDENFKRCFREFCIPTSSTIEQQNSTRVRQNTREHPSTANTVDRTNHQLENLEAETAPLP
Nature of the experiment: Rat brain mu opioid receptor binding assay ([3H]DAMGO).

The next experiment deals with δ-opioid receptor (Mus musculus, UniProt P32300). Put plainly: [35S]GTPγS δ-opioid receptor functional assay (EC50, relative efficacy, % inhibition). Format: biochemical. Set-up: NG108-15 cell membranes were purchased from Applied Cell Sciences (Rockville, Md.). For orientation: Binding of GTPγS marks nucleotide exchange on a G protein.
Chain of δ-opioid receptor (P32300 whole entry): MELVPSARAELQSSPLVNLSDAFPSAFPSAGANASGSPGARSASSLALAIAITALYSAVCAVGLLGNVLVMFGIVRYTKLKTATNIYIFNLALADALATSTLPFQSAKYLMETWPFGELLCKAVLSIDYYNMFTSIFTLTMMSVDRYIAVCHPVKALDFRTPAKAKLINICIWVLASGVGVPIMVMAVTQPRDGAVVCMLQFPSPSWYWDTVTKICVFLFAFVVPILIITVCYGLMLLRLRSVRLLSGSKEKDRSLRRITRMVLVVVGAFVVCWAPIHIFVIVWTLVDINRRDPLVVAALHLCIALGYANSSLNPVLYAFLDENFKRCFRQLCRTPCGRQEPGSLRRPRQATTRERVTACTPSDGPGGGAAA
Where [1] appears, read: rat forebrain membranes, ~4 nM [3H]DPDPE, read-out: δ-binding (DPDPE ligand) Ki.
[2] abbreviates: rat forebrain membranes, 0.25 nM [3H]naltrindole, read-out: δ-binding (Naltrindole ligand) Ki.
Where [3] appears, read: rat forebrain membranes, ~0.8 nM [3H]DAMGO, read-out: μ-binding Ki.

Like-named read-outs stand apart in the source and are kept apart here. Some results are limits rather than exact numbers.

The record followed here is patent US20110269759A1, “PYRIMIDINE COMPOUNDS AS DELTA OPIOID RECEPTOR MODULATORS” (priority 2009, published 2011).

T1 sequence (P33533 whole entry): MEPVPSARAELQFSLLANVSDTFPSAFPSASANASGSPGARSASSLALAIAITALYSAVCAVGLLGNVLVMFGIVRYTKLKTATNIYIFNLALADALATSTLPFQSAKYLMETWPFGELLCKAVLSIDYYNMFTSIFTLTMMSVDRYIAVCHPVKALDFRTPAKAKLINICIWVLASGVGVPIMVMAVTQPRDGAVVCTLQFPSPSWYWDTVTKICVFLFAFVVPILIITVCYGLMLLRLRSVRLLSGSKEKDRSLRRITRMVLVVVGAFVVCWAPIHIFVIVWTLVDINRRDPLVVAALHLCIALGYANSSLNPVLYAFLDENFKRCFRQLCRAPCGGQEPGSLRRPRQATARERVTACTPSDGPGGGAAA

In general, Ki refers to the dissociation constant of the complex between target and ligand, obtained from inhibition or displacement. Turning to `COc1ccc(Oc2ccc(NC3CCCNC3)c(Oc3ccc(OC)cc3)c2)cc1` (racemic) [Cpd 54], the Ki on Delta Opioid Receptor (setting [1]) was 492 nM; on Mu Opioid Receptor, 9700 nM.
On to `COc1ccc(CCc2ccc(NC[C@@H]3CCCN3)c(Oc3ccc(OC)cc3)c2)cc1` [Cpd 3, (S)-{2-(4-Methoxy-phenoxy)-4-[2-(4-methoxy-phenyl)-ethyl]-phenyl}-pyrrolidin-2-ylmethyl-amine], for which the figures for the Ki on Delta Opioid Receptor (setting [2]) and on Mu Opioid Receptor (setting [3]) were 120 nM and above 10000 nM, respectively.
With `COc1ccc(Oc2cc(CCc3cccc(OC)c3)ccc2NC[C@@H]2CCCN2)cc1` [Cpd 4], the Ki at Delta Opioid Receptor (setting [2]) turned out to be 210 nM.
As for `COc1ccc(Oc2cc(CCc3ccccc3)ccc2NC[C@@H]2CCCN2)cc1` [Cpd 5], the Ki on Delta Opioid Receptor (setting [2]) is 239 nM.
Same read-out and setting: to `COc1ccc(Oc2cc(CCc3ccc(F)cc3)ccc2NC[C@@H]2CCCN2)cc1` [Cpd 6] belongs 684 nM; to `COc1ccc(Oc2cc(CCc3cccc(F)c3)ccc2NC[C@@H]2CCCN2)cc1` [Cpd 7], 229 nM.
As for `CCN(CC)C(=O)c1cccc(CCc2ccc(NC[C@@H]3CCCN3)c(Oc3ccc(OC)cc3)c2)c1` [Cpd 8, (S)-N,N-Diethyl-3-(2-{3-(4-methoxy-phenoxy)-4-[(pyrrolidin-2-ylmethyl)-amino]-phenyl}-ethyl)-benzamide], the Ki is 127 nM on Delta Opioid Receptor (setting [2]) and 9000 nM on Mu Opioid Receptor.
As for `CCN(CC)C(=O)c1ccc(NC[C@@H]2CCCN2)c(Oc2ccccc2)c1` [Cpd 9, (S)-N,N-Diethyl-3-phenoxy-4-[(pyrrolidin-2-ylmethyl)-amino]-benzamide], the Ki on Delta Opioid Receptor (setting [2]) was 1020 nM; on Mu Opioid Receptor (setting [3]), above 10000 nM.
Usually EC50 stands for the concentration giving half of the maximal effect. A lower EC50 goes with higher potency in that assay. Turning to `CCN(CC)C(=O)c1ccc(NC[C@@H]2CCCN2)c(Oc2ccccc2OC)c1` [Cpd 11], the Ki at Delta Opioid Receptor (setting [1]) turned out to be 105 nM. The compound also registered a 50% effective concentration (EC50) at δ-opioid receptor of 319 nM.
As for `N#Cc1ccc(Oc2cc(-c3ccccc3)ccc2NC[C@@H]2CCCN2)cc1` [Cpd 12, (S)-4-{4-[(Pyrrolidin-2-ylmethyl)-amino]-biphenyl-3-yloxy}-benzonitrile], the figures for the Ki on Delta Opioid Receptor (setting [2]) and on Mu Opioid Receptor (setting [3]) were 996 nM and above 10000 nM, respectively.
Consider `N#Cc1cccc(Oc2cc(-c3ccccc3)ccc2NC[C@@H]2CCCN2)c1` [Cpd 13], for which the Ki at Delta Opioid Receptor (setting [2]) turned out to be 402 nM.
The same measure, in the same setting: to `c1ccc(Oc2cc(-c3ccccc3)ccc2NC[C@@H]2CCCN2)cc1` [Cpd 14] belongs 113 nM.
Same read-out and setting: to `COc1cccc(Oc2cc(-c3ccccc3)ccc2NC[C@@H]2CCCN2)c1` [Cpd 15] belongs 289 nM.
On the same count and under the same terms, with `Fc1ccc(Oc2cc(-c3ccccc3)ccc2NC[C@@H]2CCCN2)cc1` [Cpd 16] the figure was 419 nM; with `FC(F)(F)Oc1ccc(Oc2cc(-c3ccccc3)ccc2NC[C@@H]2CCCN2)cc1` [Cpd 17], 1470 nM.
`Clc1cccc(Cl)c1Oc1cc(-c2ccccc2)ccc1NC[C@@H]1CCCN1` [Cpd 18]: the Ki on Delta Opioid Receptor (setting [2]) was found to be 108 nM. Moreover, on δ-opioid receptor, the EC50 stood at 1040 nM and the “GTPγS δ-opioid receptor Rel Efficacy” value was determined as 0.763. The inhibition at 10 µM on δ-opioid receptor (read-out: GTPγS δ-opioid receptor % Inh @10 μM) amounted to 23.4%.
For `CNCCNc1ccc(-c2ccccc2)cc1Oc1ccc(OC)cc1` [Cpd 19], the Ki is 192 nM on Delta Opioid Receptor (setting [2]) and above 10000 nM on Mu Opioid Receptor (setting [3]).
Take `COC(=O)c1ccc(Oc2cc(-c3ccccc3)ccc2NC[C@@H]2CCCN2)cc1` [Cpd 20]: the Ki at Delta Opioid Receptor (setting [2]) turned out to be 779 nM.
`COC(=O)c1cccc(Oc2cc(-c3ccccc3)ccc2NC[C@@H]2CCCN2)c1` [Cpd 21]: the Ki on Delta Opioid Receptor (setting [2]) was 887 nM.
Still for that read-out and setting: with `Clc1ccc(Oc2cc(-c3ccccc3)ccc2NC[C@@H]2CCCN2)c(Cl)c1` [Cpd 22] the figure was 698 nM.
Take `COc1ccc(Oc2cc(-c3ccccc3)ccc2NC2CCNCC2)cc1` [Cpd 23]: the Ki was 461 nM on Delta Opioid Receptor (setting [2]) and above 10000 nM at Mu Opioid Receptor (setting [3]).
For the compound `COc1ccc(Oc2cc(-c3cncc(OC)c3)ccc2NC[C@@H]2C[C@@H](F)CN2)cc1` [Cpd 27], on Delta Opioid Receptor (setting [2]), the Ki came out at 1000 nM.
As for `NC(=O)c1ccc(Oc2cc(-c3ccccc3)ccc2NC[C@@H]2CCCN2)cc1` [Cpd 29, (S)-4-{4-[(Pyrrolidin-2-ylmethyl)-amino]-biphenyl-3-yloxy}-benzamide], the Ki at Delta Opioid Receptor (setting [2]) is 147 nM; at Mu Opioid Receptor (setting [3]), above 10000 nM.
Taken in the same sequence, the figures for `O=C(O)c1ccc(Oc2cc(-c3ccccc3)ccc2NC[C@@H]2CCCN2)cc1` [Cpd 31, (S)-4-{4-[(Pyrrolidin-2-ylmethyl)-amino]-biphenyl-3-yloxy}-benzoic acid] were 7690 nM and above 10000 nM.
Consider `O=C(O)c1cccc(Oc2cc(-c3ccccc3)ccc2NC[C@@H]2CCCN2)c1` [Cpd 32], for which the Ki on Delta Opioid Receptor (setting [2]) stood at 2670 nM.
As to `CCN(CC)C(=O)c1ccc(Oc2cc(-c3ccccc3)ccc2NC[C@@H]2CCCN2)cc1` [Cpd 33, (S)-N,N-Diethyl-4-{4-[(pyrrolidin-2-ylmethyl)-amino]-biphenyl-3-yloxy}-benzamide], the Ki on Delta Opioid Receptor (setting [2]) came to 284 nM; on Mu Opioid Receptor, 9300 nM.
On to `CCN(CC)C(=O)c1cccc(Oc2cc(-c3ccccc3)ccc2NC[C@@H]2CCCN2)c1` [Cpd 34], for which the Ki at Delta Opioid Receptor (setting [2]) came out at 310 nM.
Consider `COc1ccc(Oc2cc(-c3ccc4ccccc4c3)ccc2NC[C@@H]2CCCN2)cc1` [Cpd 36, (S)-[2-(4-Methoxy-phenoxy)-4-naphthalen-2-yl-phenyl]-pyrrolidin-2-ylmethyl-amine], for which the figures for the Ki at Delta Opioid Receptor (setting [2]) and at Mu Opioid Receptor (setting [3]) were 290 nM and above 10000 nM, respectively.
With `COc1ccc(Oc2cc(-c3cccc4ccccc34)ccc2NC[C@@H]2CCCN2)cc1` [Cpd 37], the Ki on Delta Opioid Receptor (setting [2]) came out at 301 nM.
Still for that read-out and setting: to `COc1ccc(Oc2cc(-c3ccoc3)ccc2NC[C@@H]2CCCN2)cc1` [Cpd 40] belongs 205 nM.
Same read-out and setting: with `COc1ccc(Oc2cc(-c3ccsc3)ccc2NC[C@@H]2CCCN2)cc1` [Cpd 41] the figure was 290 nM.
Consider `COc1ccc(Oc2cc(-c3ccccc3)ccc2N2CCNCC2)cc1` [Cpd 46, 1-[3-(4-Methoxy-phenoxy)biphenyl-4-yl]piperazine], for which the Ki is 79.7 nM on Delta Opioid Receptor and above 10000 nM at Mu Opioid Receptor (read-out: μ-binding Ki).
`COc1ccc(Oc2cc(-c3ccccc3)ccc2N2CCN(C)CC2)cc1` [Cpd 47, 1-[3-(4-Methoxy-phenoxy)biphenyl-4-yl]-4-methyl-piperazine]: the figures for the Ki at Delta Opioid Receptor (setting [2]) and on Mu Opioid Receptor (setting [3]) were 2220 nM and above 10000 nM, respectively.
Regarding `COc1ccc(Oc2cc(-c3noc(=O)[nH]3)ccc2NC[C@@H]2CCCN2)cc1` [Cpd 48, (S)-3-{3-(4-Methoxy-phenoxy)-4-[(pyrrolidin-2-ylmethyl)-amino]-phenyl}-4H-[1,2,4]oxadiazol-5-one], the Ki on Delta Opioid Receptor (setting [1]) was 492 nM; at Mu Opioid Receptor (setting [3]), 9700 nM.
As to `COc1ccc(Oc2ccc(NC[C@@H](N)CO)c(Oc3ccc(OC)cc3)c2)cc1` [Cpd 55], the Ki at Delta Opioid Receptor (setting [1]) is 1370 nM.
As to `COc1ccc(Oc2ccc(NC3CCNCC3)c(Oc3ccc(OC)cc3)c2)cc1` [Cpd 56], the Ki is 1730 nM on Delta Opioid Receptor (setting [1]) and above 10000 nM at Mu Opioid Receptor (setting [3]).
The matching figures for `COc1ccc(Oc2ccc(NC3CC4CCC(C3)N4)c(Oc3ccc(OC)cc3)c2)cc1` (stereo not drawn) [Cpd 57]: 1430 nM and above 10000 nM.
`COc1ccc(Oc2ccc(NCC3CNC3)c(Oc3ccc(OC)cc3)c2)cc1` [Cpd 58]: the values for the Ki on Delta Opioid Receptor (setting [1]) and at Mu Opioid Receptor (setting [3]) were 703 nM and above 10000 nM, respectively.
Taken in the same sequence, the figures for `COc1ccc(Oc2ccc(N(CC3CNC3)CC3CNC3)c(Oc3ccc(OC)cc3)c2)cc1` [Cpd 59] were 2280 nM and above 10000 nM.
The matching figures for `COc1ccc(Oc2ccc(NC3CN4CCC3CC4)c(Oc3ccc(OC)cc3)c2)cc1` (stereo not drawn) [Cpd 60]: 158 nM and above 10000 nM.
